We go through three compounds from patent US5981517A, “Androstene derivatives” (priority 1997, dated 1999).

Each structure is given as a SMILES string.

The test system of this assay is forearm of a human volunteer. Put plainly: Further human vasoconstriction testing, Method 2. Further details: key: +: "positive" (pallor could be observed); -: "negative" (pallor could not be detected). Format: in vivo. How it is done: The mixtures, in 20 μL amounts, were applied to circular patches (1/4 inch diameter). The patches were applied to the forearm of a human volunteer, and covered with a water impervious film for 3 hr. Vasoconstriction activity was judged by the appearance of pallor at various time points after the patches were removed. Tests were performed on the same person and the results were obtained from 2-4 observations.
In TABLE XIV above, "-" means a negative result was obtained. In other tables herein, "-" means not tested.
In TABLE XIV above, the results of a simpler method of judging vasoconstriction activity was used in which only "positive" (pallor could be observed) or "negative" (pallor could not be detected) results were recorded.

With `CCOC(=O)[C@@]1(OC(=O)CCl)[C@H](C)C[C@H]2[C@@H]3CCC4=CC(=O)C=C[C@]4(C)[C@@]3(F)[C@@H](O)C[C@@]21C` [T], the Vasoconstriction activity result is “-” (4 Hours, 0.01 mM); “-” (4 Hours, 0.05 mM); “-” (4 Hours, 0.1 mM); “-” (4 Hours, 0.5 mM); “-” (4 Hours, 1 mM); “-” (4 Hours, 5 mM).

As to `COC(=O)[C@@]1(OC(=O)CCl)[C@H](C)C[C@H]2[C@@H]3CCC4=CC(=O)C=C[C@]4(C)[C@@]3(F)[C@@H](O)C[C@@]21C` [S], the Vasoconstriction activity entry (4 Hours, 0.01 mM) is on record as “-”; the Vasoconstriction activity result (4 Hours, 0.05 mM) is on record as “-”; the Vasoconstriction activity result (4 Hours, 0.1 mM) is recorded as “-”; the Vasoconstriction activity result (4 Hours, 0.5 mM) is “-”; the Vasoconstriction activity entry (4 Hours, 1 mM) is “-”; the Vasoconstriction activity entry (4 Hours, 5 mM) is given as “-”.

For `C[C@@H]1C[C@H]2[C@@H]3CCC4=CC(=O)C=C[C@]4(C)[C@@]3(F)[C@@H](O)C[C@]2(C)[C@@]1(OC(=O)C(Cl)Cl)C(=O)OCCl` [K, chloromethyl 17α-dichloroacetoxy-9α-fluoro-11β-hydroxy-16α-methylandrosta-1,4-dien-3-one-17β-carboxylate], the Vasoconstriction activity result reads like this: (4 Hours, 0.01 mM) “-”; (4 Hours, 0.05 mM) “-”; (4 Hours, 0.1 mM) “-”; (4 Hours, 0.5 mM) “-”; (4 Hours, 1 mM) “+”; (4 Hours, 5 mM) “+”. Further, the Vasoconstriction activity entry (8 Hours, 0.01 mM) is recorded as “-”; the Vasoconstriction activity entry (8 Hours, 0.05 mM) is on record as “-”; the Vasoconstriction activity result (8 Hours, 0.1 mM) is listed as “+”; the Vasoconstriction activity entry (8 Hours, 0.5 mM) is listed as “+”; the Vasoconstriction activity result (8 Hours, 1 mM) is listed as “+”; the Vasoconstriction activity result (8 Hours, 5 mM) is given as “+”. Also, the Vasoconstriction activity entry is, setting by setting: (10-22 hours, 0.01 mM) “-”; (10-22 hours, 0.05 mM) “-”; (10-22 hours, 0.1 mM) “-”; (10-22 hours, 0.5 mM) “+”; (10-22 hours, 1 mM) “+”; (10-22 hours, 5 mM) “+”. Further, the Vasoconstriction activity entry by setting is: (24 Hours, 0.01 mM) “-”; (24 Hours, 0.05 mM) “-”; (24 Hours, 0.1 mM) “-”; (24 Hours, 0.5 mM) “+”; (24 Hours, 1 mM) “+”; (24 Hours, 5 mM) “+”.
